What is called IC50 is the midpoint of a concentration-inhibition curve.

SMILES strings stand for the structures.

This is an account of results in patent US7262297B2, “Diaminopyrroloquinazolines compounds as protein tyrosine phosphatase inhibitors” (Hoffmann-La Roche Inc., priority 2003, dated 2007).

The target of the assay is T1, Human PTP1B (1-321) (Homo sapiens, UniProt P18031).
T1 construct: Human PTP1B (1-321) was cloned from a human cDNA library; made in house; host or cells: E. coli
T1 sequence (P18031 1-321): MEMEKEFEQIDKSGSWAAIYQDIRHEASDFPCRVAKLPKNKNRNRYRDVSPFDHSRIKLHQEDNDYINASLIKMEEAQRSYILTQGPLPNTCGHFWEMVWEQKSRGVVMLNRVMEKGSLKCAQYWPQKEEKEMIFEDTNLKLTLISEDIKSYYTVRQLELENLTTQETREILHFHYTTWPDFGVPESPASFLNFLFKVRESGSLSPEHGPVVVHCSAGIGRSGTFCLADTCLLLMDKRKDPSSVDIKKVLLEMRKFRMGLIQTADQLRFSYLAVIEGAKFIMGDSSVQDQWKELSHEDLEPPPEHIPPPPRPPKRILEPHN
As to the kind of experiment: In vitro inhibition of PTP1B (PTPase assay, Malachite Green / DiFMUP). The format is biochemical. To be noted: read-out: IC50 (μM), PTP1B inhibitory activity. How it is done: Human PTP1B (1-321) was cloned from a human cDNA library using conventional molecular biology techniques. The cDNA sequence was identical to the published human PTP1B sequence (Accession number M33689). The protein was expressed and purified from E. coli as described by Barford D. et.al, J. Mol Biol (1994) 239,726-730).
The measurement of PTPase activity was carried out using one of two methods:
The first method for the measurement of PTP1B inhibitory activity a tyrosine phosphorylated peptide based on the amino acid sequence of insulin receptor tyrosine autophosphorylation site 1146 (TRDI(pY)E) was used as substrate. The reaction conditions were as follows:
PTP1B (0.5-2nM ) was incubated with compound for 15 min in buffer containing 37.5 mM Bis-Tris buffer pH 6.2, 140 mMNaCl, 0.05% BSA and 2 mM DTT. The reaction was started by the addition of 50 μM substrate. After 20 min at room temperature (22-25° C.) the reaction was stopped with KOH and the amount of free phosphate measured using Malachite Green as previously described. (Harder et al. 1994 Biochem J. 298; 395).
The second method was used for the measurement of general PTPase inhibitory activity across a panel of PTPases the substrate (6,8-difluoro-4-methylumbelliferyl phosphate (DiFMUP; from Molecular Probes) was used at the Km for each enzyme. The buffer conditions were identical as in the Malachite Green assay. The reaction was stopped with KOH. In this case the dephosphoryated product becomes fluorescent and the fluorescence read. (Excitiation: […]/Emmission: 460 nM).

As for `CCOc1cccc(-c2cc3nc(N)nc(N)c3c3cc[nH]c23)c1` [Example 2, 6-(3-Ethoxy-phenyl)-7H-pyrrolo[3,2-f]quinazoline-1,3-diamine], the IC50 came out at 23.8 µM.

As for `Nc1nc(N)c2c(cc(-c3cccc([N+](=O)[O-])c3)c3[nH]ccc32)n1` [Example 4, 6-(3-Nitro-phenyl)-7H-pyrrolo[3,2-f]quinazoline-1,3-diamine], the IC50 turned out to be 89.5 µM.

Take `Nc1nc(N)c2c(cc(-c3ccc(Cl)s3)c3[nH]ccc32)n1` [Example 6, 6-(5-Chloro-thiophen-2-yl)-7H-pyrrolo[3,2-f]quinazoline-1,3-diamine]: the IC50 was found to be 29.2 µM.

As to `Nc1cccc(-c2cc3nc(N)nc(N)c3c3cc[nH]c23)c1` [Example 8, 6-(3-Amino-phenyl)-7H-pyrrolo[3,2-f]quinazoline-1,3-diamine], the half-inhibitory concentration (IC50) worked out at 24.1 µM.
